What was measured:
[1] = tested on: velvetleaf; experiment: Test B pre/postemergence velvetleaf; type: in vivo, Abutilon theophrasti
Procedure, shortened: (§1)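 Response is a visual 0-to-10 score relative to untreated plants, where 0 means no effect and 10 means complete control, taken twelve to sixteen days after application. Treatments went onto soil at planting and onto foliage of 1- to 4-leaf plants, using a surfactant-containing non-phytotoxic solvent.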

[2] = tested on: soybean; experiment: Test B pre/postemergence soybean; type: in vivo, Glycine max
Procedure, shortened: as §1

[3] = tested on: morningglory; experiment: Test B pre/postemergence morningglory; type: in vivo, Ipomoea hederacea
Procedure, shortened: as §1

[4] = tested on: surinam grass; experiment: Test B pre/postemergence surinam grass; type: in vivo, Brachiaria decumbens
Procedure, shortened: as §1

[5] = tested on: blackgrass; experiment: Test B pre/postemergence blackgrass; type: in vivo, Alopecurus myosuroides
Procedure, shortened: as §1

[6] = tested on: smallflower flatsedge; experiment: Test B flood test smallflower flatsedge; type: in vivo, Cyperus difformis
Procedure, shortened: (§2)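 Flood test on plants grown to the 2-leaf stage; treated plants kept in greenhouse twelve to sixteen days, then visually rated against controls on a 0 (no effect) to 10 (complete control) scale.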

[7] = tested on: bamyardgrass; experiment: Test B flood test barnyardgrass; type: in vivo, Echinochloa crus-galli
Procedure, shortened: as §2

[8] = tested on: sugar beet; experiment: Test B pre/postemergence sugar beet; type: in vivo, Beta vulgaris
Procedure, shortened: as §1

[9] = tested on: wild oat; experiment: Test B pre/postemergence wild oat; type: in vivo, Avena fatua
Procedure, shortened: as §1

[10] = tested on: purple nutsedge; experiment: Test B pre/postemergence purple nutsedge; type: in vivo, Cyperus rotundus
Procedure, shortened: as §1

[11] = tested on: rape; experiment: Test B pre/postemergence rape; type: in vivo, Brassica napus
Procedure, shortened: as §1

[12] = tested on: pigweed; experiment: Test B pre/postemergence pigweed; type: in vivo, Amaranthus retroflexus
Procedure, shortened: as §1

[13] = tested on: crabgrass; experiment: Test B pre/postemergence crabgrass; type: in vivo, Digitaria sanguinalis
Procedure, shortened: as §1

[14] = tested on: cocklebur; experiment: Test B pre/postemergence cocklebur; type: in vivo, Xanthium strumarium
Procedure, shortened: as §1

[15] = tested on: giant foxtail; experiment: Test B pre/postemergence giant foxtail; type: in vivo, Setaria faberii
Procedure, shortened: as §1

[16] = tested on: corn; experiment: Test B pre/postemergence corn; type: in vivo, Zea mays
Procedure, shortened: as §1

[17] = Preemergence, Rate 62 g/ha, scale of 0 to 10 where 0 is no effect and 10 is complete control
[18] = Preemergence, Rate 250 g/ha, scale of 0 to 10 where 0 is no effect and 10 is complete control
[19] = Preemergence, Rate 500 g/ha, scale of 0 to 10 where 0 is no effect and 10 is complete control
[20] = Rate 62 g/ha, Postemergence, scale of 0 to 10 where 0 is no effect and 10 is complete control
[21] = Rate 125 g/ha, Postemergence, scale 0 to 10
[22] = Rate 125 g/ha, Preemergence, scale of 0 to 10 where 0 is no effect and 10 is complete control
[23] = Rate 500 g/ha, Postemergence, scale 0 to 10
[24] = Rate 62 g/ha, headed Pre-emergence (flood test species), scale 0 to 10 (0 no effect, 10 complete control)
[25] = Rate 125 g/ha, Pre-emergence, flood test species, scale 0 to 10 where 0 is no effect and 10 is complete control
[26] = Rate 250 g/ha, Pre-emergence, flood-test species, scale 0 to 10, 0 is no effect, 10 is complete control
[27] = Rate 500 g/ha, Pre-emergence, flood test species, scale 0 to 10 (0 no effect, 10 complete control)

CCOC(=O)C=CCn1c(=O)on(C(=O)N(c2ccc(F)cc2)C(C)C)c1=O [Compound 214]
Velvetleaf plant response rating [1, 17]: 0
Velvetleaf plant response rating [1, 18]: 0
Plant response rating, Velvetleaf [1, 19]: 0
Velvetleaf plant response rating [1, 20]: 0
Velvetleaf plant response rating [1, 21]: 0
Velvetleaf plant response rating [1, 22]: 0
Plant response rating (0 to 10; 0 is no effect, 10 is complete control), Velvetleaf ([1]; Rate 250 g/ha, Postemergence): 0
Soybean plant response rating [2, 17]: 0
Soybean plant response rating [2, 18]: 0
Plant response rating, Soybean [2, 19]: 4
Soybean plant response rating [2, 20]: 0
Soybean plant response rating [2, 21]: 1
Soybean plant response rating [2, 22]: 0
Plant response rating (0 to 10; 0 is no effect, 10 is complete control), Soybean ([2]; Rate 250 g/ha, Postemergence): 3
Soybean plant response rating [2, 23]: 3
Morningglory plant response rating [3, 17]: 0
Morningglory plant response rating [3, 18]: 0
Plant response rating, Morningglory [3, 19]: 0
Morningglory plant response rating [3, 20]: 2
Morningglory plant response rating [3, 21]: 3
Morningglory plant response rating [3, 22]: 0
Plant response rating (0 to 10; 0 is no effect, 10 is complete control), Morningglory ([3]; Rate 250 g/ha, Postemergence): 6
Morningglory plant response rating [3, 23]: 7
B. signalgrass plant response rating [4, 17]: 0
B. signalgrass plant response rating ([4]; Preemergence, Rate 250 g/ha, scale 0 to 10, 0 is no effect, 10 is complete control): 0
Plant response rating, B. signalgrass [4, 19]: 0
B. signalgrass plant response rating [4, 20]: 0
B. signalgrass plant response rating ([4]; Rate 125 g/ha, Postemergence, scale 0 (no effect) to 10 (complete control)): 0
B. signalgrass plant response rating [4, 22]: 0
Plant response rating (0 to 10; 0 is no effect, 10 is complete control), B. signalgrass ([4]; Rate 250 g/ha, Postemergence): 0
B. signalgrass plant response rating ([4]; Rate 500 g/ha, Postemergence, scale 0 to 10, 0 no effect, 10 complete control): 0
Blackgrass plant response rating [5, 17]: 0
Blackgrass plant response rating [5, 18]: 3
Plant response rating, Blackgrass [5, 19]: 3
Blackgrass plant response rating [5, 20]: 1
Blackgrass plant response rating [5, 21]: 4
Plant response rating (0 to 10; 0 is no effect, 10 is complete control), Blackgrass ([5]; Rate 250 g/ha, Postemergence): 4
Blackgrass plant response rating [5, 23]: 5
S. Flatsedge plant response rating [6, 24]: 0
S. Flatsedge plant response rating [6, 25]: 0
S. Flatsedge plant response rating [6, 26]: 0
S. Flatsedge plant response rating [6, 27]: 0
Barnyardgrass plant response rating [7, 24]: 0
Barnyardgrass plant response rating [7, 25]: 0
Barnyardgrass plant response rating [7, 26]: 0
Barnyardgrass plant response rating [7, 27]: 0
Sugarbeets plant response rating [8, 17]: 0
Sugarbeets plant response rating [8, 18]: 0
Plant response rating, Sugarbeets [8, 19]: 0
Sugarbeets plant response rating [8, 20]: 0
Sugarbeets plant response rating [8, 21]: 0
Sugarbeets plant response rating [8, 22]: 0
Plant response rating (0 to 10; 0 is no effect, 10 is complete control), Sugarbeets ([8]; Rate 250 g/ha, Postemergence): 0
Sugarbeets plant response rating [8, 23]: 0
Wild oats plant response rating [9, 17]: 0
Wild oats plant response rating [9, 18]: 0
Plant response rating, Wild oats [9, 19]: 0
Wild oats plant response rating [9, 20]: 0
Wild oats plant response rating [9, 21]: 0
Wild oats plant response rating [9, 22]: 0
Plant response rating (0 to 10; 0 is no effect, 10 is complete control), Wild oats ([9]; Rate 250 g/ha, Postemergence): 0
Nutsedge plant response rating [10, 17]: 0
Nutsedge plant response rating [10, 20]: 0
Nutsedge plant response rating [10, 21]: 0
Plant response rating (0 to 10; 0 is no effect, 10 is complete control), Nutsedge ([10]; Rate 250 g/ha, Postemergence): 0
Nutsedge plant response rating [10, 23]: 0
Rape plant response rating [11, 17]: 0
Rape plant response rating [11, 18]: 0
Plant response rating, Rape [11, 19]: 0
Rape plant response rating [11, 20]: 0
Rape plant response rating [11, 21]: 0
Rape plant response rating [11, 22]: 0
Plant response rating (0 to 10; 0 is no effect, 10 is complete control), Rape ([11]; Rate 250 g/ha, Postemergence): 3
Rape plant response rating [11, 23]: 3
Redroot pigweed plant response rating [12, 17]: 0
Redroot pigweed plant response rating [12, 18]: 6
Plant response rating, Redroot pigweed [12, 19]: 9
Redroot pigweed plant response rating [12, 20]: 0
Redroot pigweed plant response rating [12, 21]: 0
Redroot pigweed plant response rating [12, 22]: 0
Plant response rating (0 to 10; 0 is no effect, 10 is complete control), Redroot pigweed ([12]; Rate 250 g/ha, Postemergence): 1
Redroot pigweed plant response rating [12, 23]: 3
Crabgrass plant response rating [13, 17]: 0
Crabgrass plant response rating [13, 18]: 1
Plant response rating, Crabgrass [13, 19]: 4
Crabgrass plant response rating [13, 20]: 1
Crabgrass plant response rating [13, 21]: 3
Crabgrass plant response rating [13, 22]: 0
Plant response rating (0 to 10; 0 is no effect, 10 is complete control), Crabgrass ([13]; Rate 250 g/ha, Postemergence): 3
Crabgrass plant response rating [13, 23]: 5
Cocklebur plant response rating [14, 17]: 0
Cocklebur plant response rating [14, 18]: 0
Plant response rating, Cocklebur [14, 19]: 0
Cocklebur plant response rating [14, 20]: 0
Cocklebur plant response rating [14, 21]: 0
Cocklebur plant response rating [14, 22]: 0
Plant response rating (0 to 10; 0 is no effect, 10 is complete control), Cocklebur ([14]; Rate 250 g/ha, Postemergence): 0
Cocklebur plant response rating [14, 23]: 0
Giant foxtail plant response rating [15, 17]: 2
Giant foxtail plant response rating [15, 18]: 6
Plant response rating, Giant foxtail [15, 19]: 6
Giant foxtail plant response rating [15, 20]: 0
Giant foxtail plant response rating [15, 21]: 0
Giant foxtail plant response rating [15, 22]: 3
Plant response rating (0 to 10; 0 is no effect, 10 is complete control), Giant foxtail ([15]; Rate 250 g/ha, Postemergence): 0
Giant foxtail plant response rating [15, 23]: 4
Corn plant response rating [16, 17]: 0
Corn plant response rating [16, 18]: 0
Plant response rating, Corn [16, 19]: 0
Corn plant response rating [16, 20]: 0
Corn plant response rating [16, 21]: 0
Corn plant response rating [16, 22]: 0
Plant response rating (0 to 10; 0 is no effect, 10 is complete control), Corn ([16]; Rate 250 g/ha, Postemergence): 0
Corn plant response rating [16, 23]: 0

— patent publication US6737383B1, “Herbicidal oxadiazolidines” (priority 1999, dated 2004)
